Test results taken from US20110184188A1, “Insecticidal Benzenedicarboxamide Derivative” (priority 2008, published 2011).

Test: logP(acid) by reverse phase (C18) chromatography at pH 2.3
Format: physicochemical
Settings: pH 2.3

chromatographic logP | SMILES
2.64 | Cc1nc(Cn2cc(C(F)(F)C(F)(F)F)c(C(F)(F)C(F)(F)F)n2)ccc1N [SYNTHESIS EXAMPLE 82-2]

Same assay, conditions: pH 2.3; reverse phase (C18) chromatography, pH2.3, 0.1% phosphoric acid / acetonitrile gradient 10-95%; read-out: logP (acid)

SMILES | chromatographic logP
Cc1nc(Cn2cnc(C(F)(F)C(F)(F)C(F)(F)F)n2)ccc1N [SYNTHESIS EXAMPLE 84-2] | 1.52

Same assay, conditions: reverse phase (C18) chromatography at pH 2.3

Physical property logP (acid) | SMILES | logP (acid)
 | Cc1cc(Cn2nc(C(F)(F)C(F)(F)F)nc2C(F)(F)F)ccc1NC(=O)c1cc(F)cc(Cl)c1C(=O)N[C@@H](C)CS(C)(=O)=O [10-15] | logP (acid) 3.37
 | Cc1nc(Cn2nc(C(F)(F)C(F)(F)F)cc2C(F)(F)F)ccc1NC(=O)c1cccc(I)c1C(=O)NC(C)C[S+](C)[O-] (mixture of isomers) [13-190] | logP (acid) 2.76
 | Cc1nc(Cn2cc(C(F)(F)C(F)(F)F)c(C(F)(F)C(F)(F)F)n2)ccc1NC(=O)c1cccc(Br)c1C(=O)N[C@@H](C)C[S+](C)[O-] (some centres unmarked) [13-138] | logP (acid) 3.03
 | CSC[C@H](C)NC(=O)c1c(I)cccc1C(=O)Nc1ccc(Cn2cc(C(F)(F)C(F)(F)F)c(C(F)(F)C(F)(F)F)n2)nc1C [13-156] | logP (acid) 4.46
 | Cc1nc(Cn2nc(C(F)(F)C(F)(F)F)cc2C(F)(F)F)ccc1NC(=O)c1cccc(Cl)c1C(=O)N[C@@H](C)CS(C)(=O)=O [13-186] | logP (acid) 3.12
 | Cc1cc(Cn2nc(C(F)(F)C(F)(F)F)nc2C(F)(F)F)ccc1NC(=O)c1cc(F)cc(Cl)c1C(=O)N[C@@H](C)C[S+](C)[O-] (some centres unmarked) [10-14] | logP (acid) 3.00
 | CSC[C@H](C)NC(=O)c1c(Br)cccc1C(=O)Nc1ccc(Cn2nc(C(F)(F)C(F)(F)F)cc2C(F)(F)F)nc1C [13-135] | logP (acid) 4.30
 | Cc1nc(Cn2nc(C(F)(F)F)cc2C(F)(F)F)ccc1NC(=O)c1c(Cl)ccc(Cl)c1C(=O)N[C@@H](C)C[S+](C)[O-] (some centres unmarked) [11-5] | logP (acid) 2.65
 | CSCC(C)NC(=O)c1c(Cl)ccc(Cl)c1C(=O)Nc1ccc(Cn2nc(C(F)(F)F)cc2C(F)(F)F)nc1C (centres unmarked) [11-4] | logP (acid) 4.14
 | COc1ccc(Br)c(C(=O)Nc2ccc(Cn3nc(C(F)(F)F)cc3C(F)(F)F)nc2C)c1C(=O)N[C@@H](C)C[S+](C)[O-] (some centres unmarked) [11-17] | logP (acid) 2.6
 | CSC[C@H](C)NC(=O)c1c(Cl)cc(Cl)cc1C(=O)Nc1ccc(Cn2nc(C(F)(F)C(F)(F)F)nc2C(F)(F)F)cc1C [10-10] | logP (acid) 4.64
logP (acid) 4.13 | CSCC(C)NC(=O)c1c(Cl)cccc1C(=O)Nc1ccc(Cn2nc(C(F)(F)F)nc2SC(C)C)cc1C (centres unmarked) [14-39] | 
logP (acid) 4.13 | CCSc1nc(C(F)(F)F)nn1Cc1ccc(NC(=O)c2cccc(Cl)c2C(=O)NC(C)CSC)c(C)c1 (centres unmarked) [14-38] | 
 | Cc1cc(Cn2nc(C(F)(F)C(F)(F)F)nc2C(F)(F)F)ccc1NC(=O)c1c(Br)ccc(Cl)c1C(=O)N[C@@H](C)CS(C)(=O)=O [11-32] | logP (acid) 3.47
 | CSC[C@H](C)NC(=O)c1c(Cl)cccc1C(=O)Nc1ccc(Cn2cc(C(F)(F)C(F)(F)F)c(C(F)(F)C(F)(F)F)n2)nc1C [13-50] | 4.27
 | CSC[C@H](C)NC(=O)c1c(Br)cccc1C(=O)Nc1cnc(Cn2nc(C(F)(F)F)cc2C(F)(F)F)cc1C [13-178] | logP (acid) 3.59
 | Cc1cc(Cn2nc(C(F)(F)F)cc2C(F)(F)F)ncc1NC(=O)c1cccc(I)c1C(=O)NC(C)C[S+](C)[O-] (mixture of isomers) [13-182] | logP (acid) 2.3
 | Cc1nc(Cn2nc(C(F)(F)C(F)(F)C(F)(F)F)cc2C(F)(F)F)ccc1NC(=O)c1cccc(Br)c1C(=O)N[C@@H](C)C[S+](C)[O-] (some centres unmarked) [13-136] | logP (acid) 3.08
 | COc1ccc(Br)c(C(=O)Nc2ccc(Cn3nc(C(F)(F)C(F)(F)F)nc3C(F)(F)F)cc2C)c1C(=O)N[C@@H](C)CSC [11-38] | logP (acid) 4.14

Same assay, conditions: reverse phase (C18) chromatography at pH2.3, 0.1% phosphoric acid aqueous solution / acetonitrile, linear gradient 10-95%

logP (acid) | SMILES
logP (acid) 3.32 | CNC(=O)c1cc(Cl)cc(Cl)c1C(=O)Nc1cc(Cl)cc(Cn2nc(C(F)(F)F)nc2C(F)(F)F)c1 [4-1]

Same assay, conditions: reverse phase (C18) chromatography at pH2.3, 0.1% phosphoric acid aqueous solution / acetonitrile, linear gradient 10-95% acetonitrile

logP (acid) | SMILES
logP (acid) 3.02 | Cc1cc(Cn2nc(C(F)(F)F)nc2C(F)(F)F)c(F)cc1NC(=O)c1cccc(Cl)c1C(=O)N[C@@H](C)CS(C)(=O)=O [7-9]

Same assay, conditions: reverse phase (C18) chromatography column, pH 2.3; reverse phase (C18) chromatography, pH2.3, 0.1% phosphoric acid / acetonitrile gradient 10-95%; read-out: logP (acid)

chromatographic logP | SMILES
4.5 | Cc1nc(Cn2cc(C(F)(F)C(F)(F)F)c(C(F)(F)C(F)(F)F)n2)ccc1[N+](=O)[O-] [SYNTHESIS EXAMPLE 82-1]
1.18 | Cc1nc(Cn2nnc(C(F)(F)F)n2)ccc1N [SYNTHESIS EXAMPLE 85-2]
0.55 | Cc1nc(Cn2cnc(C(F)(F)C(F)F)n2)ccc1N [SYNTHESIS EXAMPLE 83-2]

Same assay, conditions: reverse phase (C18) chromatography, pH 2.3

logP (acid) | SMILES
logP (acid) 2.87 | CSC[C@H](C)NC(=O)c1c(Cl)cccc1C(=O)Nc1ccc(Cn2cc(C(=O)NC(C)C)c(C(F)(F)F)n2)cc1C [13-209]
logP (acid) 2.31 | CSC[C@H](C)NC(=O)c1c(Cl)cccc1C(=O)Nc1ccc(Cn2nc(C(F)(F)F)cc2N)cc1C [13-200]
logP (acid) 2.39 | Cc1nc(Cn2nc(C(F)(F)C(F)(F)F)nc2C(F)(F)F)ccc1NC(=O)c1cccc(S(C)(=O)=O)c1C(=O)N[C@@H](C)C[S+](C)[O-] (some centres unmarked) [14-394]
logP (acid) 2.13 | Cc1cc(Cn2nc(C(F)(F)C(F)(F)F)n(N)c2=O)ccc1NC(=O)c1cccc(Cl)c1C(=O)N[C@@H](C)CS(C)(=O)=O [14-423]
logP (acid) 3.64 | CSC[C@H](C)NC(=O)c1c(Cl)cccc1C(=O)Nc1ccc(Nc2c(C(F)(F)F)c(C(F)(F)C(F)(F)F)nn2C)nc1C [13-226]
logP (acid) 2.75 | Cc1nc(Cn2nc(C(F)(F)F)cc2C(F)(F)F)ccc1NC(=O)c1cccc(S(=O)(=O)N(C)C)c1C(=O)N[C@@H](C)CS(C)(=O)=O [13-289]
logP (acid) 3.88 | CSC[C@H](C)NC(=O)c1c(C(=O)Nc2ccc(Cn3nc(C(F)(F)C(F)(F)F)nc3C(F)(F)F)cc2C)cccc1S(=O)(=O)N(C)C [14-384]
logP (acid) 1.37 | Cc1nc(Cn2nc(C(F)(F)F)n(C)c2=O)ccc1NC(=O)c1cccc(Cl)c1C(=O)N[C@@H](C)C[S+](C)[O-] (some centres unmarked) [14-321]
logP (acid) 3.95 | Cc1cc(Cn2nc(C(F)(F)C(F)(F)F)nc2C(F)(F)F)ccc1NC(=O)c1cccc(I)c1C(=O)NC(C)CC1(C)OCCO1 (centres unmarked) [14-361]
logP (acid) 3.53 | CSC[C@H](C)NC(=O)c1c(SC)cccc1C(=O)Nc1ccc(Cn2nc(C(F)(F)C(F)(F)F)n(C(F)F)c2=O)cc1C [14-389]
logP (acid) 3.74 | CSC[C@H](C)NC(=O)c1cc(Cl)c(Cl)cc1C(=O)Nc1ccc(Cn2nc(C(F)(F)F)cc2C(F)(F)F)nc1C [13-238]
logP (acid) 3.44 | CSC[C@H](C)NC(=O)c1c(I)cccc1C(=O)Nc1cnc(Cn2nc(C(F)(F)F)nc2C(F)(F)F)cc1C [14-274]
logP (acid) 3.86 | Cc1cc(Cn2nc(C(F)(F)C(F)(F)F)nc2C(F)(F)F)ccc1NC(=O)c1cccc(Cl)c1C(=O)NC(C)CC1(C)OCCO1 (centres unmarked) [14-360]
logP (acid) 3.45 | CSC[C@H](C)NC(=O)c1c(Cl)cccc1C(=O)Nc1ccc(Cn2nc(C(F)(F)C(F)F)nc2C(F)(F)F)nc1C [14-311]
logP (acid) 3.25 | CSC[C@H](C)NC(=O)c1c(Cl)cccc1C(=O)Nc1ccc(Cn2cc(C(=O)NC(C)C(F)(F)F)c(C(F)(F)F)n2)cc1C (some centres unmarked) [13-208]
logP (acid) 3.22 | Cc1cc(Cn2nnc(-c3ccc(C(F)(F)F)cc3)n2)ccc1NC(=O)c1cccc(Br)c1C(=O)N[C@@H](C)CS(C)(=O)=O [14-348]
logP (acid) 4.55 | CSC[C@H](C)NC(=O)c1c(Cl)cccc1C(=O)Nc1ccc(Cn2cc(C(=O)Nc3cc(C(F)(F)F)cc(C(F)(F)F)c3)c(C(F)(F)F)n2)cc1C [13-211]
logP (acid) 3.37 | CSC[C@H](C)NC(=O)c1c(Br)cccc1C(=O)Nc1cnc(Cn2nc(C(F)(F)F)nc2C(F)(F)F)cc1C [14-271]
logP (acid) 2.77 | CSCC(C)NC(=O)c1c(SC)cccc1C(=O)Nc1ccc(C(O)c2cc(C(F)(F)C(F)(F)F)n[nH]2)cc1C (mixture of isomers) [13-340]
logP (acid) 2.48 | CSC[C@H](C)NC(=O)c1c(Br)cccc1C(=O)Nc1ccc(Cn2cnc(C(F)(F)C(F)F)n2)nc1C [14-302]
logP (acid) 2.53 | CCN(CC)CC(C)NC(=O)c1cccc(Cl)c1C(=O)Nc1ccc(Cn2nc(C(F)(F)F)cc2C(F)(F)F)nc1C (centres unmarked) [13-285]
logP (acid) 3.43 | CCOC(=O)c1cn(Cc2ccc(NC(=O)c3cccc(Cl)c3C(=O)N[C@@H](C)CSC)c(C)c2)nc1C(F)(F)F [13-202]
logP (acid) 3.68 | CSC[C@H](C)NC(=O)c1c(Cl)cccc1C(=O)Nc1ccc(Cn2nc(C(F)(F)C(F)(F)F)n(C(F)F)c2=O)cc1C [14-328]

SMILES | logP (acid)
Cc1nc(Cn2nc(C(F)(F)F)cc2C(F)(F)F)ccc1NC(=O)c1cccc(S(=O)(=O)N(C)C)c1C(=O)NC(C)C[S+](C)[O-] (mixture of isomers) [13-288] | logP (acid) 2.37
Cc1cc(Cn2nc(C(F)(F)F)cc2C(F)(F)F)ccc1NC(=O)c1c(Cl)cccc1C(=O)NCC#N [13-198] | logP (acid) 3.32
CSC[C@H](C)NC(=O)c1c(Cl)cccc1C(=O)Nc1ccc(Cn2nc(C(F)(F)F)cc2C(F)(F)F)nc1Cl [13-232] | logP (acid) 3.97

Same assay, conditions: reverse phase (C18) chromatography, pH2.3, 0.1% phosphoric acid aqueous solution / acetonitrile, linear gradient 10-95% acetonitrile

logP (acid) | SMILES
logP (acid) 2.96 | Cc1cc(Cn2nc(C(F)(F)C(F)(F)F)nc2C(F)(F)F)ccc1NC(=O)c1ccc(F)c(Br)c1C(=O)N[C@@H](C)C[S+](C)[O-] (some centres unmarked) [9-13]
logP (acid) 4.30 | CSC[C@H](C)NC(=O)c1c(C(=O)Nc2ccc(Cn3nc(C(F)(F)F)nc3C(F)(F)F)cc2C)ccc(C(F)(F)F)c1Cl [9-18]
logP (acid) 3.27 | Cc1nc(Cn2nc(C(F)(F)F)cc2C(F)(F)F)ccc1NC(=O)c1ccc(F)c(Br)c1C(=O)N[C@@H](C)CS(C)(=O)=O [9-21]
logP (acid) 4.27 | CSC[C@H](C)NC(=O)c1c(C(=O)Nc2ccc(Cn3nc(C(F)(F)C(F)(F)F)nc3C(F)(F)F)cc2C)ccc([N+](=O)[O-])c1Cl [9-15]
